# Earlier results in patent US20110268798A1, “ORALLY DISNTEGRATING TABLETS FOR THE TREATMENT OF PAIN” (ADD ADVANCED DRUG DELIVERY TECHNOLOGIES LTD, priority 2009, published 2011).
# Key:
# [1] = not given; remark: listed apart in the source
SMILES,solubility in ether,solubility in methylene chloride (methylene chloride),solubility in water,"stability in air / moisture ([1]; dry air, moisture)",stability versus pH ([1]; pH),stability versus temperature ([1]; temperature),solubility in alcohol (alcohol),solubility in chloroform (chloroform)
"CC(=O)Nc1ccc(O)cc1 [Acetaminophen, N-(4-hydroxyphenyl)acetamide]",very slightly soluble,very slightly soluble,sparingly soluble,,,,,
"CC(=O)Oc1ccccc1C(=O)O [Acetylsalicylic acid, 2(acetyloxy)benzoic acid]",soluble,,slightly soluble,stable in dry air but hydrolyses in contact with moisture to acetic and salicylic acids,pH-dependent stability profile,sensitive to temperature,freely soluble,soluble
